Assay results from patent publication US10351589B2, “3α-ethynyl, 3β-hydroxy-5α-pregnan-20-oxime for use in the treatment of CNS disorders” (Umecrine Cognition AB, priority 2015, dated 2019).

Assays:
Assay type in all cases: cell-based
[1] = target: T1, α5β3γ2L GABAA receptor (Homo sapiens, UniProt P18507+P28472+P31644); assay: Example 3: comparative patch clamp test of compound and epimer, change in chloride flow through α5β3γ2L GABAA receptor; settings: for action on the GABA receptor subunit alpha 5: summary of Table 4
T1 construct: expressed in transfected cells; host or cells: HEK-293 (permanently transfected)
T1 sequence (P31644 32-462): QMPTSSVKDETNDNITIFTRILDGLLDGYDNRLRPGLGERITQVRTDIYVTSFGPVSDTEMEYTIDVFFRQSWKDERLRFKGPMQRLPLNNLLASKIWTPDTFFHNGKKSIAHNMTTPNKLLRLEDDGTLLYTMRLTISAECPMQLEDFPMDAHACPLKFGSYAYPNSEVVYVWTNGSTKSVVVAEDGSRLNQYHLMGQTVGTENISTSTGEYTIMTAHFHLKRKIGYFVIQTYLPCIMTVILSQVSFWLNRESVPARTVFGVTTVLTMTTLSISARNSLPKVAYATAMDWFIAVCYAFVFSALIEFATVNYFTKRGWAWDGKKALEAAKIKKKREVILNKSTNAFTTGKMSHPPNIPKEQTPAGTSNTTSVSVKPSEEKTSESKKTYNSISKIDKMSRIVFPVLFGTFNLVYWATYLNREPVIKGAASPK
T1 sequence (P28472 26-473): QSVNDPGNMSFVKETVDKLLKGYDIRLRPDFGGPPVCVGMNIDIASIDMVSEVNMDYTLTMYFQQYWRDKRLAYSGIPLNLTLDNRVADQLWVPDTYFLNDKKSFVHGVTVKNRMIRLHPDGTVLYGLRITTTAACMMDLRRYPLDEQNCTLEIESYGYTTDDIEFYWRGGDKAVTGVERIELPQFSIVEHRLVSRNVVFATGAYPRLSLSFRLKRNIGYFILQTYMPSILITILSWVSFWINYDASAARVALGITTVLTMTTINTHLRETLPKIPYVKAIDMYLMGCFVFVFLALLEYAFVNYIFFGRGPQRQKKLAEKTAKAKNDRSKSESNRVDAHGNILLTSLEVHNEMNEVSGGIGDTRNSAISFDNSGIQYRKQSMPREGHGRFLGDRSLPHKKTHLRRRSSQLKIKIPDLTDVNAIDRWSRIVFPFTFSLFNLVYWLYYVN
T1 sequence (P18507 40-475): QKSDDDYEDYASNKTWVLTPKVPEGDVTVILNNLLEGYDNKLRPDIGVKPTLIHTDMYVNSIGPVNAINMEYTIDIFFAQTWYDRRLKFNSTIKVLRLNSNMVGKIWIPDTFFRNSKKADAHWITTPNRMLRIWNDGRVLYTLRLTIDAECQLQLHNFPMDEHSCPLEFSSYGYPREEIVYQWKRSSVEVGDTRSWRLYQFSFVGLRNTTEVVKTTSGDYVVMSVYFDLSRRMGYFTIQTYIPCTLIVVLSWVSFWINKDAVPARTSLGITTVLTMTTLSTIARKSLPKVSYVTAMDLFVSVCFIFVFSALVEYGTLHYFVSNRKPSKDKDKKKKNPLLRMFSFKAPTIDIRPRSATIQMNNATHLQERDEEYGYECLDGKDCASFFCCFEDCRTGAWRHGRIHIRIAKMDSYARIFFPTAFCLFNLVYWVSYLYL
Text: (§1) HEK-293 cells, permanently transfected with the human α1β2γ2 GABAA and α5β3γ2 GABAA receptor expressing functional α1β2γ2L and α5β3γ2L GABAA receptors were used. The cell lines permanently expressing a functional human GABAA receptor was made in following steps. The GABAA receptor subunits α1(308-1727 NM_000806), β2 (214-1679 NM_000813), and γ2L (290-1785 NM_198904) including introduced Kozac sequences just before the start codons were subcloned into mammalian expression vectors containing Geneticin, Hygromycin B, and Zeocin resistance, respectively. A HEK-293 cell line stably expressing the three GABAA receptor subunits was produced by transfection of the subunits one at a time. The transfection was followed by selection with the appropriate antibiotics, cell separation with the use of subunit specific antibodies (β2 and γ2), and production of single cell colonies. Produced cell lines were analysed with immunocytochemistry for the three GABAA receptor subunits, followed by selection of a suitable cell line showing for the GABAA receptor normal and good reactivity in a patch-clamp analysis (see below) towards GABA and the GAMS tetrahydrodeoxycorticosterone (THDOC).
(§2) Experiments were carried out to investigate the effect of 3α-ethynyl, 3β-hydroxy, 5α-pregnan-20-oxime on the GABAA receptor function in absence and in presence of the GAMS Tetrahydrodeoxycorticosterone (THDOC) by the Dynaflow™ system on HEK-293 cells. In these tests the protocol was optimized to be similar to the physiological conditions in the synaptic cleft.
(§3) Cell culture: HEK-293 cells, permanently transfected with human α1β2γ2 GABAA and α5β3γ2 GABAA receptor subtypes, were seeded at a density of 3×10^4/25 cm^2 in cellbind culture flask. The transfected cells were used for patch-clamp experiments 3 days after seeding. When using the cells for patch-clamp experiments the cells were washed twice with O2 bubbled EC-solution (see below). About 5 mL EC was then added and the cells were kept in the incubator for about 15 minutes. After 15 minutes the cells come loose from the bottom of the flask and were separated by carefully sucking couple of times with a Pasteur pipette.
(§4) Dynaflow™ system: Dynaflow™ system with resolve chips was used for all patch-clamp experiments. The resolve chips is made of non-sticky materials. The channel width is 150 μm and the height 50 μm. The well volume is 280 μL. Run time at the flow rate of […]. is […]. The pump settings were as follow: Omnifix 2 mL syringe with inner diameter of 9.65 mm was used. The syringe pump flow rate of chip was 26 μL/min.
Electrophysiology: Patch electrodes were pulled from 1.5 mm O.D., 0.86 mm I.D. borosilicate capillary glass without filament. […] The intracellular solution consisted of (in mM): 140 Cs-gluconate, 3.0 NaCl, 1.2 MgCl2, 1.0 EGTA, 10 HEPES. pH was adjusted to 7.2 with CsOH. The extracellular (EC) solution used during recordings contained (in mM): 137 NaCl, 5.0 KCl, 1.0 CaCl2, 1.2 MgCl2, 10 HEPES, 10 glucose. pH was adjusted with NaOH to 7.4. After compensating for the liquid junction potential a steady holding potential of −17 mV was used in all experiments. In physiological conditions the HEK-293 has a resting potential at −40 mV and a low concentration of chloride ions inside the cell. By using the holding potential of −17 mV and the intracellular solution with low chloride ion concentration the chloride ions flux into the cell when the receptors are activated. All experiments were performed at room temperature (21 to 23° C.). A standard protocol was used for all experiments.
GABA applications: By using the Dynaflow equipment it is possible to study transfected HEK-293 during almost physiological conditions. The Dynaflow system allows application of solutions for as short as 40 ms up to minutes in time. Physiologically, in the synaptic cleft, GABA is released in mM range for about 2 ms this is valid for alpha1 receptors. […]

[2] = target: T1, α5β3γ2L GABAA receptor; assay: Patch clamp (Dynaflow) current response mediated by chloride ion flux, α5β3γ2L GABAA receptor in HEK-293 cells; settings: for Relative effect Mean (%) / Relative effect Median: 200 nM THDOC + 0.3 μM GABA, control set to 0
Text: as §1, §2, §3, §4
(§5) Steroids and GABA: GABA was dissolved in EC-solution by ultrasound for about 40 minutes to the concentration of 10 mM in room temperature. All steroids were dissolved to the concentration of 6 mM in ethanol. The ethanol concentration was 0.1% in all end-solutions, including the wash solution (EC) and the solution with GABA alone. End-solutions are the solutions added into the wells of the chip.
(§6) Electrophysiology: Patch electrodes were pulled from 1.5 mm O.D., 0.86 mm I.D. borosilicate capillary glass without filament. […] The intracellular solution consisted of (in mM): 140 Cs-gluconate, 3.0 NaCl, 1.2 MgCl2, 1.0 EGTA, 10 HEPES. pH was adjusted to 7.2 with CsOH. The extracellular (EC) solution used during recordings contained (in mM): 137 NaCl, 5.0 KCl, 1.0 CaCl2, 1.2 MgCl2, 10 HEPES, 10 glucose. pH was adjusted with NaOH to 7.4. After compensating for the liquid junction potential a steady holding potential of −17 mV was used in all experiments. In physiological conditions the HEK-293 has a resting potential at −40 mV and a low concentration of chloride ions inside the cell. By using the holding potential of −17 mV and the intracellular solution with low chloride ion concentration the chloride ions flux into the cell when the receptors are activated. All experiments were performed at room temperature (21 to 23° C.). A standard protocol was used for all experiments. […]

[3] = target: T2, human α1β2γ2L GABAA receptor (Homo sapiens, UniProt P14867+P18507+P47870); assay: Patch clamp (Dynaflow) current response mediated by chloride ion flux, α1β2γ2L GABAA receptor in HEK-293 cells
T2 construct: expressed in transfected cells
T2 sequence (P14867 28-456): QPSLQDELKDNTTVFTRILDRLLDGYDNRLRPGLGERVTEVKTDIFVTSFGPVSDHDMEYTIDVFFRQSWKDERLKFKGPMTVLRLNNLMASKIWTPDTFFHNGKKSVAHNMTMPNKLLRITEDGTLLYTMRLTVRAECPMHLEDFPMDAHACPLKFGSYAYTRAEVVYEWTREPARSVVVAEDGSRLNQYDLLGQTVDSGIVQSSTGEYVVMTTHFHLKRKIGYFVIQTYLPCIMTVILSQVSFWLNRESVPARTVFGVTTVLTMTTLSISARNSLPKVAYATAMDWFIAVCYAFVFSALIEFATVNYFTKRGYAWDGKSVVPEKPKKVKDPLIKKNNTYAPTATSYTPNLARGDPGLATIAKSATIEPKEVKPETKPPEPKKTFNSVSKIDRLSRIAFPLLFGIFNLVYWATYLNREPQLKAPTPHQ
T2 sequence (P47870 26-474 isoform P47870-1 limits assumed): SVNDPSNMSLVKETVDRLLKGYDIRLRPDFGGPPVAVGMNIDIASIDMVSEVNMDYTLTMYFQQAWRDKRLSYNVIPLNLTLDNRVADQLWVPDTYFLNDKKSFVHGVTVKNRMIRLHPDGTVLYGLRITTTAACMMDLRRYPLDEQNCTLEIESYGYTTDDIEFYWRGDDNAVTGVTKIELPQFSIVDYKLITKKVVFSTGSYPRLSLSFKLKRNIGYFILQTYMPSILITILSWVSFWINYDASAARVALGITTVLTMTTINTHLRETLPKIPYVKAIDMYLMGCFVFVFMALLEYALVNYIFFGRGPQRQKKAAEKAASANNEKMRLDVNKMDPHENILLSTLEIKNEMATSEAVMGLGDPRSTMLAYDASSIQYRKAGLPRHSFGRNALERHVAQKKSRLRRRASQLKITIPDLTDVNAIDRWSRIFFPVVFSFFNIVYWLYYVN
T2 sequence (P18507 40-475): as the sequence (P18507 40-475) above
Text: as §1, §2, §3, §4, §5, §6

## C#C[C@@]1(O)CC[C@@]2(C)[C@@H](CC[C@@H]3[C@@H]2CC[C@]2(C)[C@@H](C(C)=NO)CC[C@@H]32)C1 [Comparator, 3β-ethynyl, 3α-hydroxy, 5α-pregnan-20-oxime]
[1]; 1 μM steroid, α5β3γ2L
  Mean % (SEM) Compound + GABA, change in chloride flow: +210 (23) %
  Mean % (SEM) Compound + THDOC + GABA, change in chloride flow: +80 (8) %
  Mean % (SEM) Compound + THDOC, change in chloride flow: +128 (22) %
  Mean % (SEM) Compound alone, change in chloride flow: +50 (12) %
  mode of action, Compound + GABA: agonist
  mode of action, Compound + THDOC: agonist
  mode of action, Compound + THDOC + GABA: agonist
  mode of action, Compound alone: agonist
[1]
  action on the GABA receptor subunit alpha 5: agonist

## C#C[C@]1(O)CC[C@@]2(C)C(CCC3C2CC[C@@]2(C)C3CC[C@@H]2/C(C)=N/O)C1 (stereo partly drawn) [Compound, 3α-ethynyl, 3β-hydroxy, 5α-pregnan-20-oxime]
[1]; 1 μM steroid, α5β3γ2L
  Mean % (SEM) Compound + GABA, change in chloride flow: −19 (2) %
  Mean % (SEM) Compound + THDOC + GABA, change in chloride flow: −15 (3) %
  Mean % (SEM) Compound + THDOC, change in chloride flow: −30 (6) %
  Mean % (SEM) Compound alone, change in chloride flow: no effect
  mode of action, Compound + GABA: antagonist
  mode of action, Compound + THDOC: antagonist
  mode of action, Compound + THDOC + GABA: antagonist
[1]
  action on the GABA receptor subunit alpha 5: antagonist
[2]; 0.1 μM compound
  Relative effect Mean (%): −3.0%
  Relative effect Median: −1.6
[2]; 200 nM THDOC, no GABA
  effect on 200 nM THDOC evoked current (direct activation by GAMS): antagonizing effect
[2]; 0.3 μM compound
  Relative effect Mean (%): −6.6%
  Relative effect Median: −6.9
[2]; 1 μM compound
  Relative effect Mean (%): −15.2%
  Relative effect Median: −11.0
[2]; 3 μM compound
  Relative effect Mean (%): −20.7%
  Relative effect Median: −23.6
[2]; 0.1-3 μM compound
  effect on 200 nM GAMS (THDOC) and 0.3 μM GABA evoked currents: clear concentration dependent antagonizing effect
[2]; all tested situations with GAMS and GABA
  action on α5β3γ2L receptor subtype: antagonist
[2]; α5β3γ2
  Compound + GABA, current response: −18.8 ± 2.2
[2]; α5β3γ2, GAMS = THDOC
  Compound + GAMS + GABA, current response: −15.2 ± 2.8
[2]; α5β3γ2, GAMS = THDOC, no GABA
  Compound + GAMS, current response: −29.7 ± 6.5
[2]; α5β3γ2, no GABA, no GAMS
  Compound alone, current response: No effect
[3]; 1 μM compound
  direct activation of the GABAA receptor in absence of GABA: did not activate
[3]; 1 μM compound, α1β2γ2L
  increase of GABA mediated current response: approximately 10%
[3]; compound + GABA
  effect on GABA's opening of the α1β2γ2L GABAA receptor: slight agonistic effect
[3]; compound alone
  effect of compound alone on chloride flux: no enhancing or antagonizing effect
[3]; α1β2γ2L
  Compound + GABA, current response: +11 ± 4
[3]; α1β2γ2L receptor
  antagonistic effect against the enhancing effect of THDOC: no antagonistic effect
[3]; α1β2γ2L, GAMS = THDOC
  Compound + GAMS + GABA, current response: No effect
[3]; α1β2γ2L, no GABA, no GAMS
  Compound alone, current response: No effect
